From ChEMBL document CHEMBL1201862, “PubChem BioAssay data set” (2004)
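Cells were grown in 96-well plates and exposed to each compound for 48 hours at five concentrations; endpoints were interpolated linearly between bracketing concentrations, or set to the highest concentration if not reached. The concentration for 50% growth inhibition is given as GI50.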 Calls of active or inactive are those of the source. Rule as the data show it: active = GI50 up to about 1.1 µM and inactive = higher.

Assays:
Assay in all cases: NCI anticancer screen, dose series, 48 h
SF-268 = tested on: SF-268
HCC 2998 = tested on: HCC 2998
T47D = tested on: T47D
K562 = tested on: K562
MDA-N = tested on: MDA-N
HOP-62 = tested on: HOP-62
M14 = tested on: M14
UACC-62 = tested on: UACC-62
U-251 = tested on: U-251
SNB-19 = tested on: SNB-19
PC-3 = tested on: PC-3
CCRF-CEM = tested on: CCRF-CEM
UACC-257 = tested on: UACC-257
HOP-92 = tested on: HOP-92
UO-31 = tested on: UO-31
COLO 205 = tested on: COLO 205
DU-145 = tested on: DU-145
SF-295 = tested on: SF-295
HL-60 = tested on: HL-60
SF-539 = tested on: SF-539

Measured: GI50

Fc1ccc(C(OCCN2CCC3CCC(C2)N3CCCc2ccccc2)c2ccc(F)cc2)cc1 (stereo not given)
inactive: SF-268 6.62 µM | HCC 2998 2.08 µM | T47D 2.16 µM | K562 2.05 µM | MDA-N 3.27 µM | HOP-62 7.38 µM | M14 2.1 µM | UACC-62 5.75 µM | U-251 4.33 µM | SNB-19 10.1 µM | PC-3 2.98 µM | CCRF-CEM 3.01 µM | UACC-257 2.92 µM | HOP-92 5.45 µM | UO-31 5.56 µM | COLO 205 1.37 µM | DU-145 8 µM | SF-295 2.77 µM | HL-60 2.12 µM | SF-539 1.35 µM

CCOC(=O)c1c(C)c(C)n2c1NC(=O)C2
inactive: SF-268 > 42.8 µM | HCC 2998 97.1 µM | T47D 21.1 µM | K562 > 100 µM | MDA-N > 100 µM | HOP-62 > 66.5 µM | M14 > 53.7 µM | UACC-62 > 60.3 µM | U-251 > 48.1 µM | SNB-19 55.3 µM | PC-3 36.8 µM | CCRF-CEM > 100 µM | UACC-257 > 60 µM | HOP-92 > 91.4 µM | UO-31 > 64.3 µM | COLO 205 > 73.6 µM | DU-145 20.8 µM | SF-295 > 80 µM | HL-60 > 100 µM | SF-539 > 57 µM

Nc1cc2c3c(cccc3c1)C(=O)N(c1ccc(OCCN3CCCCC3)cc1)C2=O
inactive: SF-268 19.1 µM | HCC 2998 19.9 µM | T47D 20.4 µM | K562 12.1 µM | MDA-N 18.5 µM | HOP-62 15.8 µM | M14 15.5 µM | UACC-62 19.1 µM | U-251 22 µM | SNB-19 18.3 µM | PC-3 17.4 µM | CCRF-CEM 21.2 µM | UACC-257 16 µM | HOP-92 14.9 µM | UO-31 9.73 µM | COLO 205 13.4 µM | DU-145 16.9 µM | SF-295 16.9 µM | HL-60 4.89 µM | SF-539 14 µM

CC1=CN(c2ccccc2)S2=C1c1sc3c(c1N2c1ccc(Br)cc1)CCCC3 (stereo not given)
inactive: SF-268 > 100 µM | HCC 2998 > 100 µM | T47D 91.2 µM | K562 > 100 µM | MDA-N > 100 µM | HOP-62 > 100 µM | M14 > 100 µM | UACC-62 > 100 µM | U-251 > 100 µM | SNB-19 > 100 µM | PC-3 > 100 µM | CCRF-CEM > 100 µM | UACC-257 > 100 µM | HOP-92 > 100 µM | UO-31 > 100 µM | COLO 205 > 100 µM | DU-145 > 100 µM | SF-295 > 100 µM | HL-60 > 100 µM | SF-539 > 100 µM

COc1cc2c3c4c1OCc1c5c(cc(c1-4)CC3[N+](C)(C)CC2)OCO5 (stereo not given)
inactive: SF-268 2.79 µM | HCC 2998 > 100 µM | T47D > 100 µM | K562 > 86.9 µM | MDA-N > 100 µM | HOP-62 31.1 µM | M14 > 100 µM | UACC-62 > 100 µM | U-251 4.9 µM | SNB-19 4.33 µM | PC-3 > 100 µM | CCRF-CEM > 100 µM | UACC-257 > 100 µM | HOP-92 > 100 µM | UO-31 > 100 µM | COLO 205 > 100 µM | DU-145 > 100 µM | SF-295 6.05 µM | HL-60 > 100 µM | SF-539 11.2 µM

CC[n+]1cnc(N)c2c(-c3ccc(Cl)cc3)cn(-c3ccc(C)cc3)c21
inactive: SF-268 13.6 µM | HCC 2998 4.33 µM | T47D 12 µM | K562 5.33 µM | MDA-N 12.5 µM | HOP-62 16.8 µM | M14 1.94 µM | UACC-62 11.4 µM | U-251 11.9 µM | SNB-19 15.5 µM | PC-3 10.5 µM | CCRF-CEM 6.89 µM | UACC-257 2.82 µM | HOP-92 11.2 µM | UO-31 9.93 µM | COLO 205 3.78 µM | DU-145 17.9 µM | SF-295 12.7 µM | HL-60 24.8 µM | SF-539 14.6 µM

OC12C3C4CC5C(C4[C@@H]1Br)C2[C@@](O)(c1c(F)c(F)c(F)c(F)c1F)C53 (stereo not given in full)
inactive: SF-268 38.7 µM | HCC 2998 36.5 µM | T47D 41.4 µM | K562 21.4 µM | MDA-N 34.9 µM | HOP-62 35.1 µM | M14 37 µM | UACC-62 25.6 µM | U-251 38 µM | SNB-19 37.2 µM | PC-3 23.3 µM | CCRF-CEM 21.7 µM | UACC-257 24.8 µM | HOP-92 24 µM | UO-31 29.8 µM | COLO 205 39.4 µM | DU-145 41.8 µM | SF-295 25.9 µM | HL-60 38.2 µM | SF-539 56.4 µM

C=C1C(=O)O[C@H]2[C@@H]3O[C@@](C)(CC/C=C(\C)CCC[C@@H]2C)[C@H](O)C[C@@H]13
inactive: SF-268 16.8 µM | HCC 2998 5.02 µM | T47D 3.58 µM | K562 1.25 µM | MDA-N 2.36 µM | HOP-62 10.5 µM | M14 1.95 µM | UACC-62 3.73 µM | U-251 13.5 µM | SNB-19 > 10 µM | PC-3 8.49 µM | CCRF-CEM 10.2 µM | UACC-257 10 µM | HOP-92 3.42 µM | UO-31 2.87 µM | COLO 205 2.42 µM | DU-145 6.5 µM | SF-295 13.9 µM | HL-60 2.34 µM | SF-539 2.14 µM

Cc1ccccc1OC(C)C(=O)NN1C(=O)CC(=O)N(c2ccc(Cl)cc2)C1=S (stereo not given)
inactive: SF-268 50.9 µM | HCC 2998 27.4 µM | T47D 34.6 µM | K562 38.6 µM | MDA-N 32.1 µM | HOP-62 47.9 µM | M14 44.8 µM | UACC-62 27.9 µM | U-251 34.1 µM | SNB-19 61.1 µM | PC-3 31.9 µM | CCRF-CEM 19.3 µM | UACC-257 30 µM | HOP-92 19.3 µM | UO-31 41 µM | COLO 205 23.3 µM | DU-145 36.1 µM | SF-295 36.8 µM | HL-60 13.4 µM | SF-539 46.1 µM

C[n+]1ccccc1/C1=c2\cc/c([nH]2)=C(\c2cccc[n+]2C)C2=N/C(=C(/c3cccc[n+]3C)C3C=CC(N3)/C(c3cccc[n+]3C)=C3/C=CC1=N3)C=C2
inactive: SF-268 > 100 µM | HCC 2998 > 100 µM | T47D > 100 µM | K562 26.7 µM | MDA-N > 100 µM | HOP-62 > 100 µM | M14 > 100 µM | UACC-62 > 100 µM | U-251 > 100 µM | SNB-19 > 100 µM | PC-3 > 100 µM | CCRF-CEM 3.26 µM | UACC-257 > 100 µM | HOP-92 90.6 µM | UO-31 > 100 µM | COLO 205 75.2 µM | DU-145 > 100 µM | SF-295 > 100 µM | HL-60 > 100 µM | SF-539 > 100 µM
